Experimental data from patent US20240408085A1, “COMPOUND FOR DEGRADATION OF BCL-2 FAMILY PROTEINS AND MEDICAL APPLICATION THEREOF” (XIZANG HAISCO PHARMACEUTICAL CO., LTD., priority 2021, published 2024).
pIC50: −log10 of the molar value.

Biological target: T1, BCL-xL proteins (Homo sapiens, UniProt Q07817)
T1 construct: degradation effect on the BCL-xL proteins in MOLT-4 cells; host or cells: MOLT-4
Experiment: BCL-xL degradation activity in MOLT-4 cells (western blot, 16 h)
Format: cell-based
Details: not given
Experimental: MOLT-4 cells are acute lymphoblastic leukemia cell lines in humans. The cells were purchased from ATCC. Culture conditions: RPMI-1640+10% FBS+1% penicillin-streptomycin solution. The cells were cultured in a 37° C., 5% CO2 incubator. The cells were plated in a 12-well plate, with 2×10^5 cells/well. After plating, compounds at different concentrations were added and cultured in a 37° C., 5% CO2 incubator for 16 h. After the completion of culture, the cells were harvested and RIPA lysis buffer (beyotime, Cat. P0013B) was added. The cells were lysed on ice for 15 minutes and centrifuged at 12000 rpm at 4° C. for 10 minutes. The supernatant protein samples were collected and the protein was quantified by using the BCA kit (Beyotime, Cat. P0009). Then the protein was diluted to 0.8 mg/mL. The expressions of BCL-xL (CST, Cat. 2764S), BCL-2 (CST, Cat. 15071S) and the internal reference β-actin (CST, Cat. 3700S) were detected using a fully automated western blot quantitative analyzer (Proteinsimple). The expression level of BCL-xL or BCL-2 relative to the internal reference was calculated by using Compass software, and the DC50 value was calculated by using GraphPad Prism 8.0 software according to formula (1), wherein the Proteinadministration denoted the relative expression level of BCL-xL or BCL-2 in administration groups at different doses, and the Proteinvehicle denoted the relative expression level of BCL-xL or BCL-2 in the vehicle control group.
Protein %=Proteinadministration/Proteinvehicle×100% formula (1)

T1 sequence (Q07817 whole entry): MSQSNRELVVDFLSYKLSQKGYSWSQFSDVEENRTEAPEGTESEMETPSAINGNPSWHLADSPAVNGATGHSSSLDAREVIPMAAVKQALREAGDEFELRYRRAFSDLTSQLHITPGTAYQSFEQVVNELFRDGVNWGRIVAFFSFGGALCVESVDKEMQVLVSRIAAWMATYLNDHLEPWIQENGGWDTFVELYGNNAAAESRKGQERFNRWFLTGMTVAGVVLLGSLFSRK

Which DC50 does the source give for `Cc1ncsc1-c1ccc([C@H](C)NC(=O)[C@@H]2C[C@@H](O)CN2C(=O)[C@@H](NC(=O)CCCCCC(=O)N2C[C@H]3CN(CC[C@H](CSc4ccccc4)Nc4ccc(S(=O)(=O)NC(=O)c5ccc(N6CCN(CC7=C(c8ccc(Cl)cc8F)CCC(C)(C)C7)CC6)cc5)cc4S(=O)(=O)C(F)(F)F)C[C@H]3C2)C(C)(C)C)cc1` (relative stereo) [Compound 14, cis-(2S,4R)-1-((S)-2-(7-(5-((R)-3-((4-(N-(4-(4-((4′-chloro-2′-fluoro-4,4-dimethyl-3,4,5,6-tetrahydro-[1,1′-biphenyl]-2-yl)methyl)piperazin-1-yl)benzoyl)sulfamoyl)-2-((trifluoromethyl)sulfonyl)phenyl)amino)-4-(phenylthio)butyl)hexahydropyrrolo[3,4-c]pyrrol-2(1H)-yl)-7-oxoheptanamido)-3,3-dimethylbutanoyl)-4-hydroxy-N—((S)-1-(4-(4-methylthiazol-5-yl)phenyl)ethyl) pyrrolidine-2-carboxamide] here?
The DC50 was 0.0081 µM.

System: MOLT-4 cells
Experiment: Cell proliferation activity in MOLT-4 cells (72 h, cell viability luminescence)
Format: cell-based, human
Details: Homo sapiens, read-out: IC50 for the inhibition of MOLT-4 cell proliferation
Method in brief: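 Human acute lymphoblastic leukemia cells were seeded at 5×10^3 cells/well in RPMI-1640 with 10% FBS. They were treated with serially varied compound concentrations for 72 h at 37° C., 5% CO2. A luminescent viability reagent was used for read-out. IC50 was derived relative to vehicle control; maximum inhibition was the inhibition rate at the highest concentration.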

How did the pIC50 turn out when `O=C1CCC(N2C(=O)c3ccc(N4CC(CN5CCN(CC[C@H](CSc6ccccc6)Nc6ccc(S(=O)(=O)NC(=O)c7ccc(N8CCN(CC9=C(c%10ccc(Cl)cc%10)CCCCC9)CC8)cc7)cc6S(=O)(=O)C(F)(F)F)CC5)C4)cc3C2=O)C(=O)N1` (stereo partly drawn) [Compound 44, 4-(4-((2-(4-chlorophenyl)cyclohept-1-en-1-yl)methyl)piperazin-1-yl)-N-((4-(((2R)-4-(4-((1-(2-(2,6-dioxopiperidin-3-yl)-1,3-dioxoisoindolin-5-yl)azetidin-3-yl)methyl)piperazin-1-yl)-1-(phenylthio)butan-2-yl)amino)-3-((trifluoromethyl)sulfonyl)phenyl)sulfonyl)benzamide] was run?
The pIC50 was greater than 6.30.

With `Cc1ncsc1-c1ccc([C@H](C)NC(=O)[C@@H]2C[C@@H](O)CN2C(=O)[C@@H](NC(=O)CCCCCC(=O)N2C[C@@H]3C[C@H]2CN3CC[C@H](CSc2ccccc2)Nc2ccc(S(=O)(=O)NC(=O)c3ccc(N4CCN(CC5=C(c6ccc(Cl)cc6)CCC6(CC6)C5)CC4)cc3)cc2S(=O)(=O)C(F)(F)F)C(C)(C)C)cc1` [Compound 27, (2S,4R)-1-((S)-2-(7-((1S,4S)-5-((R)-3-((4-(N-(4-(4-((6-(4-chlorophenyl)spiro[2.5]oct-5-en-5-yl)methyl)piperazin-1-yl)benzoyl)sulfamoyl)-2-((trifluoromethyl)sulfonyl)phenyl)amino)-4-(phenylthio)butyl)-2,5-diazabicyclo[2.2.1]heptan-2-yl)-7-oxoheptanamido)-3,3-dimethylbutanoyl)-4-hydroxy-N—((S)-1-(4-(4-methylthiazol-5-yl)phenyl)ethyl)pyrrolidine-2-carboxamide] as the compound, how does the pIC50 read?
The pIC50 was greater than 6.30.

With `Cc1ncsc1-c1ccc([C@H](C)NC(=O)[C@@H]2C[C@@H](O)CN2C(=O)[C@@H](NC(=O)CCCCCC(=O)N2CCC3(CC2)CN(CC[C@H](CSc2ccccc2)Nc2ccc(S(=O)(=O)NC(=O)c4ccc(N5CCN(CC6=C(c7ccc(Cl)cc7)CCC(C)(C)C6)CC5)cc4)cc2S(=O)(=O)C(F)(F)F)C3)C(C)(C)C)cc1` [Trifluoroacetate of compound 9, (2S,4R)-1-((S)-2-(7-(2-((R)-3-((4-(N-(4-(4-((4′-chloro-4,4-dimethyl-3,4,5,6-tetrahydro-[1,1′-biphenyl]-2-yl)methyl)piperazin-1-yl)benzoyl)sulfamoyl)-2-((trifluoromethyl)sulfonyl)phenyl)amino)-4-(phenylthio)butyl)-2,7-diazaspiro[3.5]nonan-7-yl)-7-oxoheptanamido)-3,3-dimethylbutanoyl)-4-hydroxy-N—((S)-1-(4-(4-methylthiazol-5-yl)phenyl)ethyl)pyrrolidine-2-carboxamide] as the compound, how does the pIC50 read?
The pIC50 was greater than 6.30.

With `Cc1ncsc1-c1ccc([C@H](C)NC(=O)[C@@H]2C[C@@H](O)CN2C(=O)[C@@H](NC(=O)CCCCCCC(=O)N2CCN(CC[C@H](CSc3ccccc3)Nc3ccc(S(=O)(=O)NC(=O)c4ccc(N5CCN(CC6=C(c7ccc(Cl)cc7F)CCC(C)(C)C6)CC5)cc4)cc3S(=O)(=O)C(F)(F)F)CC2)C(C)(C)C)cc1` [Compound 24, (2S,4R)-1-((S)-2-(8-(4-((R)-3-((4-(N-(4-(4-((4′-chloro-2′-fluoro-4,4-dimethyl-3,4,5,6-tetrahydro-[1,1′-biphenyl]-2-yl)methyl)piperazin-1-yl)benzoyl)sulfamoyl)-2-((trifluoromethyl)sulfonyl)phenyl)amino)-4-(phenylthio)butyl)piperazin-1-yl)-8-oxooctanamido)-3,3-dimethylbutanoyl)-4-hydroxy-N—((S)-1-(4-(4-methylthiazol-5-yl)phenyl)ethyl)pyrrolidine-2-carboxamide] as the compound, how does the pIC50 read?
The pIC50 was greater than 6.30.

With `Cc1ncsc1-c1ccc([C@H](C)NC(=O)[C@@H]2C[C@@H](O)CN2C(=O)[C@@H](NC(=O)CCCCCC(=O)N2CCN(CC[C@H](CSc3ccccc3)Nc3ccc(S(=O)(=O)NC(=O)c4ccc(N5CCN(CC6=C(c7ccc(Cl)cc7)CCCCC6)CC5)cc4)cc3S(=O)(=O)C(F)(F)F)CC2)C(C)(C)C)cc1` [Trifluoroacetate of compound 6, (2S,4R)-1-((S)-2-(7-(4-((R)-3-((4-(N-(4-(4-((2-(4-chlorophenyl)cyclohept-1-en-1-yl)methyl)piperazin-1-yl)benzoyl)sulfamoyl)-2-((trifluoromethyl)sulfonyl)phenyl)amino)-4-(phenylthio)butyl)piperazin-1-yl)-7-oxoheptanamido)-3,3-dimethylbutanoyl)-4-hydroxy-N—((S)-1-(4-(4-methylthiazol-5-yl)phenyl)ethyl)pyrrolidine-2-carboxamide] as the compound, how does the pIC50 read?
The pIC50 was greater than 6.30.

How did the pIC50 turn out when `O=C1CCC(N2C(=O)c3ccc(N4CCC(CN5CCN(CC[C@H](CSc6ccccc6)Nc6ccc(S(=O)(=O)NC(=O)c7ccc(N8CCN(CC9=C(c%10ccc(Cl)cc%10)CCCCC9)CC8)cc7)cc6S(=O)(=O)C(F)(F)F)CC5)CC4)cc3C2=O)C(=O)N1` (stereo partly drawn) [Compound 45, 4-(4-((2-(4-chlorophenyl)cyclohept-1-en-1-yl)methyl)piperazin-1-yl)-N-((4-(((2R)-4-(4-((1-(2-(2,6-dioxopiperidin-3-yl)-1,3-dioxoisoindolin-5-yl)piperidin-4-yl)methyl)piperazin-1-yl)-1-(phenylthio)butan-2-yl)amino)-3-((trifluoromethyl)sulfonyl)phenyl)sulfonyl)benzamide] was run?
The pIC50 was greater than 6.30.

How did the pIC50 turn out when `Cc1ncsc1-c1ccc([C@H](C)NC(=O)[C@@H]2C[C@@H](O)CN2C(=O)[C@@H](NC(=O)CCCCCCC(=O)N2C[C@@H]3C[C@H]2CN3CC[C@H](CSc2ccccc2)Nc2ccc(S(=O)(=O)NC(=O)c3ccc(N4CCN(CC5=C(c6ccc(Cl)cc6F)CCCCC5)CC4)cc3)cc2S(=O)(=O)C(F)(F)F)C(C)(C)C)cc1` [Compound 38, (2S,4R)-1-((S)-2-(8-((1S,4S)-5-((R)-3-((4-(N-(4-(4-((2-(4-chloro-2-fluorophenyl)cyclohept-1-en-1-yl)methyl)piperazin-1-yl)benzoyl)sulfamoyl)-2-((trifluoromethyl)sulfonyl)phenyl)amino)-4-(phenylthio)butyl)-2,5-diazabicyclo[2.2.1]heptan-2-yl)-8-oxooctanamido)-3,3-dimethylbutanoyl)-4-hydroxy-N—((S)-1-(4-(4-methylthiazol-5-yl)phenyl)ethyl)pyrrolidine-2-carboxamide] was run?
The pIC50 was greater than 6.30.

`Cc1ncsc1-c1ccc([C@H](C)NC(=O)[C@@H]2C[C@@H](O)CN2C(=O)[C@@H](NC(=O)CCCCCC(=O)N2C[C@@H]3C[C@H]2CN3CC[C@H](CSc2ccccc2)Nc2ccc(S(=O)(=O)NC(=O)c3ccc(N4CCN(CC5=C(c6ccc(Cl)cc6)CCC(C)(C)C5)CC4)cc3)cc2S(=O)(=O)C(F)(F)F)C(C)(C)C)cc1` [Compound 13, (2S,4R)-1-((S)-2-(7-((1S,4S)-5-((R)-3-((4-(N-(4-(4-((4′-chloro-4,4-dimethyl-3,4,5,6-tetrahydro-[1,1′-biphenyl]-2-yl)methyl)piperazin-1-yl)benzoyl)sulfamoyl)-2-((trifluoromethyl)sulfonyl)phenyl)amino)-4-(phenylthio)butyl)-2,5-diazabicyclo[2.2.1]heptan-2-yl)-7-oxoheptanamido)-3,3-dimethylbutanoyl)-4-hydroxy-N—((S)-1-(4-(4-methylthiazol-5-yl)phenyl)ethyl)pyrrolidine-2-carboxamide] was tested. Which pIC50 did it give?
The pIC50 was greater than 6.30.

Same assay, conditions: read-out: IC50 for the inhibition of MOLT-4 cell proliferation

`Cc1ncsc1-c1ccc([C@H](C)NC(=O)[C@@H]2C[C@@H](O)CN2C(=O)[C@@H](NC(=O)CCCCCC(=O)N2C[C@H]3CN(CC[C@H](CSc4ccccc4)Nc4ccc(S(=O)(=O)NC(=O)c5ccc(N6CCN(CC7=C(c8ccc(Cl)cc8F)CCC(C)(C)C7)CC6)cc5)cc4S(=O)(=O)C(F)(F)F)C[C@H]3C2)C(C)(C)C)cc1` (relative stereo) [Compound 14, cis-(2S,4R)-1-((S)-2-(7-(5-((R)-3-((4-(N-(4-(4-((4′-chloro-2′-fluoro-4,4-dimethyl-3,4,5,6-tetrahydro-[1,1′-biphenyl]-2-yl)methyl)piperazin-1-yl)benzoyl)sulfamoyl)-2-((trifluoromethyl)sulfonyl)phenyl)amino)-4-(phenylthio)butyl)hexahydropyrrolo[3,4-c]pyrrol-2(1H)-yl)-7-oxoheptanamido)-3,3-dimethylbutanoyl)-4-hydroxy-N—((S)-1-(4-(4-methylthiazol-5-yl)phenyl)ethyl) pyrrolidine-2-carboxamide] was tested. Which pIC50 did it give?
Its pIC50 is greater than 6.30.
